Assay results from US20260216127A1, “COMBINATIONS OF A UROTHILIN AND A KETONE BODY” (Amazentis SA, priority 2022, published 2026).
Like-named read-outs stand apart in the source and are kept apart here.

What was measured:
[1] = test system: Interleukin 6 (IL-6) secretion in C2C12 cells; experiment: IL-6 secretion (ELISA) of differentiated C2C12 cells exposed to pro-inflammatory cytokine mix (cytomix); assay type: cell-based
Protocol: C2C12 Myoblasts, purchased from the American Type Culture Collection (ATCC) (ref. CRL-1772), were seeded at 8000 cells per well in a 96 well plate (Greiner, Kremsmünster, Austria) using a DMEM Glutamax 4.5 g D-glucose (Gibco, ref 31966021) supplemented with foetal bovine serum (FBS) 10% (PanBiotech, ref P190902), 1% PenStrep (Biowest) and 1% HEPES (Biowest). Cells were then differentiated for 6 days using a differentiation medium (DMEM Glutamax 4.5 g D-glucose (Gibco, ref 31966021), 2% Horse serum (Thermofisher, ref 160501229) 1% PenStrep and 1% HEPES). All the media were sterilized with a 0.45 μm filter unit (VWR). […] The medium was collected and an ELISA for Interleukin-6 were performed following the instruction provided by the supplier (Proteintech ref. KE10007). Finally, the absorbance at a wavelength of 450 nm was measured using a microplate plate reader (Fluostar Optima, BMG Labtech).

[2] = test system: inflammation in certain cell-based models; conditions: cited from earlier work

## CC(O)CC(=O)[O-].[Na+] (racemic) [BHB, DL-β-Hydroxybutyric acid sodium salt]
[1]; BHB 5 μM alone, cytomix
  impact on IL-6 secretion: −0.007%
[1]; higher dose of BHB alone, cytomix
  reduction of IL-6 secretion: 32%
[2]; PMC6402511
  concentration at which the anti-inflammatory effect of BHB was observed: > 250 µM
[2]; PMID: 25686106
  concentration at which the anti-inflammatory effect of BHB was observed: above 2 mM

## O=c1oc2cc(O)ccc2c2ccc(O)cc12 [Urolithin A]
[1]; UA 6.25 μM alone, 24 h pre-treatment then cytomix 24 h
  reduction of IL-6 secretion: 25%
[1]; UA 12.5 μM alone, 24 h pre-treatment then cytomix 24 h
  reduction of IL-6 secretion: 60%
